Source: the NIST ThermoML archive (doi:10.1021/acs.jced.7b00106)
“And” between values parts separate entries of the source, which are not always exact repeats. Equal values may be shown once.

Conditions: Hot wire method

FC(F)(F)/C=C/Cl [(E)-1-chloro-3,3,3-trifluoroprop-1-ene]
Conditions	thermal conductivity
401.56 K, 1795 kPa, Fluid (supercritical or subcritical phases)	0.02087 W/m/K
401.57 K, 1795 kPa, Fluid (supercritical or subcritical phases)	0.02094 W/m/K
401.58 K, 1514 kPa, Fluid (supercritical or subcritical phases)	0.01985 W/m/K
401.58 K, 1515 kPa, Fluid (supercritical or subcritical phases)	0.01989 W/m/K
401.61 K, 1407 kPa, Fluid (supercritical or subcritical phases)	0.01962 W/m/K
401.62 K, 1407 kPa, Fluid (supercritical or subcritical phases)	0.01968 W/m/K
401.65 K, 1306 kPa, Fluid (supercritical or subcritical phases)	0.01952 W/m/K
401.65 K, 1307 kPa, Fluid (supercritical or subcritical phases)	0.01951 W/m/K
401.67 K, 1716 kPa, Fluid (supercritical or subcritical phases)	0.02063 W/m/K
401.69 K, 1203 kPa, Fluid (supercritical or subcritical phases)	0.01937 W/m/K and 0.01933 W/m/K
401.71 K, 1106 kPa, Fluid (supercritical or subcritical phases)	0.01926 W/m/K
401.72 K, 1106 kPa, Fluid (supercritical or subcritical phases)	0.01925 W/m/K
401.72 K, 1623 kPa, Fluid (supercritical or subcritical phases)	0.0203 W/m/K
401.73 K, 1623 kPa, Fluid (supercritical or subcritical phases)	0.02026 W/m/K
401.75 K, 847 kPa, Fluid (supercritical or subcritical phases)	0.01914 W/m/K
401.75 K, 1000 kPa, Fluid (supercritical or subcritical phases)	0.01916 W/m/K
401.75 K, 1001 kPa, Fluid (supercritical or subcritical phases)	0.01919 W/m/K
401.76 K, 846 kPa, Fluid (supercritical or subcritical phases)	0.01915 W/m/K
401.76 K, 1795 kPa, Fluid (supercritical or subcritical phases)	0.02102 W/m/K
401.76 K, 1796 kPa, Fluid (supercritical or subcritical phases)	0.02099 W/m/K
401.78 K, 1514 kPa, Fluid (supercritical or subcritical phases)	0.0199 W/m/K
401.79 K, 1515 kPa, Fluid (supercritical or subcritical phases)	0.01993 W/m/K
401.82 K, 1408 kPa, Fluid (supercritical or subcritical phases)	0.01967 W/m/K
401.83 K, 1407 kPa, Fluid (supercritical or subcritical phases)	0.01973 W/m/K
401.84 K, 675 kPa, Fluid (supercritical or subcritical phases)	0.01911 W/m/K
401.86 K, 1307 kPa, Fluid (supercritical or subcritical phases)	0.01952 W/m/K
401.87 K, 1716 kPa, Fluid (supercritical or subcritical phases)	0.02077 W/m/K
401.88 K, 1715 kPa, Fluid (supercritical or subcritical phases)	0.02074 W/m/K
401.91 K, 1202 kPa, Fluid (supercritical or subcritical phases)	0.01943 W/m/K
401.91 K, 1203 kPa, Fluid (supercritical or subcritical phases)	0.01941 W/m/K
401.93 K, 1622 kPa, Fluid (supercritical or subcritical phases)	0.02034 W/m/K
401.94 K, 1105 kPa, Fluid (supercritical or subcritical phases)	0.01929 W/m/K
401.94 K, 1106 kPa, Fluid (supercritical or subcritical phases)	0.01933 W/m/K
401.94 K, 1624 kPa, Fluid (supercritical or subcritical phases)	0.02037 W/m/K
401.96 K, 1796 kPa, Fluid (supercritical or subcritical phases)	0.02117 W/m/K
401.97 K, 1000 kPa, Fluid (supercritical or subcritical phases)	0.01921 W/m/K
401.97 K, 1001 kPa, Fluid (supercritical or subcritical phases)	0.01922 W/m/K
401.97 K, 1796 kPa, Fluid (supercritical or subcritical phases)	0.02115 W/m/K
401.99 K, 847 kPa, Fluid (supercritical or subcritical phases)	0.01917 W/m/K
402 K, 845 kPa, Fluid (supercritical or subcritical phases)	0.01916 W/m/K
402 K, 1514 kPa, Fluid (supercritical or subcritical phases)	0.01998 W/m/K and 0.02002 W/m/K
402.04 K, 1407 kPa, Fluid (supercritical or subcritical phases)	0.01972 W/m/K
402.04 K, 1408 kPa, Fluid (supercritical or subcritical phases)	0.01978 W/m/K
402.07 K, 1716 kPa, Fluid (supercritical or subcritical phases)	0.02086 W/m/K and 0.02091 W/m/K
402.09 K, 674 kPa, Fluid (supercritical or subcritical phases)	0.0192 W/m/K
402.09 K, 1306 kPa, Fluid (supercritical or subcritical phases)	0.01958 W/m/K
402.09 K, 1307 kPa, Fluid (supercritical or subcritical phases)	0.01963 W/m/K
402.12 K, 33574 kPa, Liquid	0.0762 W/m/K
402.13 K, 1203 kPa, Fluid (supercritical or subcritical phases)	0.01947 W/m/K
402.14 K, 1203 kPa, Fluid (supercritical or subcritical phases)	0.01946 W/m/K
402.15 K, 1623 kPa, Fluid (supercritical or subcritical phases)	0.02048 W/m/K
402.17 K, 1105 kPa, Fluid (supercritical or subcritical phases)	0.01933 W/m/K and 0.01934 W/m/K
402.19 K, 1796 kPa, Fluid (supercritical or subcritical phases)	0.02136 W/m/K and 0.02138 W/m/K
402.2 K, 24990 kPa, Liquid	0.07177 W/m/K
402.2 K, 25009 kPa, Liquid	0.07171 W/m/K
402.21 K, 1000 kPa, Fluid (supercritical or subcritical phases)	0.01925 W/m/K
402.22 K, 1851 kPa, Liquid	0.05439 W/m/K
402.22 K, 1852 kPa, Liquid	0.05442 W/m/K
402.23 K, 846 kPa, Fluid (supercritical or subcritical phases)	0.01918 W/m/K
402.23 K, 1515 kPa, Fluid (supercritical or subcritical phases)	0.02013 W/m/K and 0.02014 W/m/K
402.24 K, 847 kPa, Fluid (supercritical or subcritical phases)	0.01925 W/m/K
402.25 K, 13371 kPa, Liquid	0.06482 W/m/K
402.26 K, 13368 kPa, Liquid	0.06479 W/m/K
402.27 K, 1408 kPa, Fluid (supercritical or subcritical phases)	0.01984 W/m/K and 0.01988 W/m/K
402.29 K, 21647 kPa, Liquid	0.06986 W/m/K
402.29 K, 21648 kPa, Liquid	0.06987 W/m/K
402.31 K, 1715 kPa, Fluid (supercritical or subcritical phases)	0.02112 W/m/K and 0.02105 W/m/K
402.31 K, 28736 kPa, Liquid	0.07366 W/m/K
402.31 K, 28755 kPa, Liquid	0.0737 W/m/K
402.32 K, 5982 kPa, Liquid	0.0589 W/m/K and 0.05892 W/m/K
402.32 K, 11080 kPa, Liquid	0.06308 W/m/K
402.32 K, 11097 kPa, Liquid	0.06313 W/m/K
402.33 K, 1306 kPa, Fluid (supercritical or subcritical phases)	0.01962 W/m/K and 0.01976 W/m/K
